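How tested: cells in 96-well plates exposed to compound for 48 hours at five concentrations. At the GI50, growth is halved. The concentration for full growth arrest is given as TGI.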
Assays:
Assay in all cases: inhibition of tumour cell growth, NCI panel, 48 h
M14 melanoma = tested on: M14 melanoma
HCC-2998 colon = tested on: HCC-2998 colon
HCT-15 colon = tested on: HCT-15 colon
IGROV1 ovarian = tested on: IGROV1 ovarian
NCI/ADR-RES ovarian = tested on: NCI/ADR-RES ovarian
NCI-H226 lung = tested on: NCI-H226 lung
LOX IMVI melanoma = tested on: LOX IMVI melanoma
A498 renal = tested on: A498 renal
A549 NSCLC = tested on: A549 NSCLC
OVCAR-5 ovarian = tested on: OVCAR-5 ovarian
ACHN renal = tested on: ACHN renal
SK-MEL-5 melanoma = tested on: SK-MEL-5 melanoma
786-0 renal = tested on: 786-0 renal
OVCAR-8 ovarian = tested on: OVCAR-8 ovarian
OVCAR-4 ovarian = tested on: OVCAR-4 ovarian
UACC-62 melanoma = tested on: UACC-62 melanoma
HL-60(TB) leukemia = tested on: HL-60(TB) leukemia
UO-31 renal = tested on: UO-31 renal
U251 CNS = tested on: U251 CNS
UACC-257 melanoma = tested on: UACC-257 melanoma
CAKI-1 renal = tested on: CAKI-1 renal
HS 578T breast = tested on: HS 578T breast
MDA-MB-231 breast = tested on: MDA-MB-231 breast
SF-295 CNS = tested on: SF-295 CNS
SF-539 CNS = tested on: SF-539 CNS
NCI-H522 lung = tested on: NCI-H522 lung
MALME-3M melanoma = tested on: MALME-3M melanoma
MDA-MB-468 breast = tested on: MDA-MB-468 breast
SF-268 CNS = tested on: SF-268 CNS
CCRF-CEM leukemia = tested on: CCRF-CEM leukemia
HCT-116 colon = tested on: HCT-116 colon
SN12C renal = tested on: SN12C renal
SR leukemia = tested on: SR leukemia
OVCAR-3 ovarian = tested on: OVCAR-3 ovarian
MOLT-4 leukemia = tested on: MOLT-4 leukemia
HT29 colon = tested on: HT29 colon
HOP-92 NSCLC = tested on: HOP-92 NSCLC
NCI-H23 lung = tested on: NCI-H23 lung
DU-145 prostate = tested on: DU-145 prostate
TK-10 renal = tested on: TK-10 renal
RPMI-8226 leukemia = tested on: RPMI-8226 leukemia
BT-549 breast = tested on: BT-549 breast
EKVX NSCLC = tested on: EKVX NSCLC
MCF7 breast = tested on: MCF7 breast
PC-3 prostate = tested on: PC-3 prostate
SNB-75 CNS = tested on: SNB-75 CNS
HOP-62 NSCLC = tested on: HOP-62 NSCLC
COLO 205 colon = tested on: COLO 205 colon
K-562 leukemia = tested on: K-562 leukemia
SK-OV-3 ovarian = tested on: SK-OV-3 ovarian
SW-620 colon = tested on: SW-620 colon
MDA-MB-435 = tested on: MDA-MB-435
T-47D breast = tested on: T-47D breast
SNB-19 CNS = tested on: SNB-19 CNS
SK-MEL-28 melanoma = tested on: SK-MEL-28 melanoma
KM12 colon = tested on: KM12 colon
SK-MEL-2 melanoma = tested on: SK-MEL-2 melanoma
RXF 393 renal = tested on: RXF 393 renal
NCI-H460 lung = tested on: NCI-H460 lung

For `COc1cc(Nc2nc(O)c(/C=C3\C=Nc4ccccc43)s2)cc(OC)c1OC`, the GI50 (M14 melanoma) was 2.02 µM, the TGI (M14 melanoma) was 15.9 µM and the GI50 (HCC-2998 colon) was 6.36 µM. For the same compound, the TGI (HCC-2998 colon) was 20.7 µM, the GI50 (HCT-15 colon) was 1.79 µM and the TGI (HCT-15 colon) was 12.4 µM. For the same compound, the GI50 (IGROV1 ovarian) was 4.91 µM, the TGI (IGROV1 ovarian) was 21.6 µM and the GI50 (NCI/ADR-RES ovarian) was 6.24 µM. The TGI (NCI/ADR-RES ovarian) was 24.2 µM, the GI50 (NCI-H226 lung) was 3.18 µM and the TGI (NCI-H226 lung) was 17.4 µM. It also gave a GI50 (LOX IMVI melanoma) of 2.82 µM, a TGI (LOX IMVI melanoma) of 13.9 µM and a GI50 (A498 renal) of 10.2 µM. The TGI (A498 renal) was 24.6 µM, the GI50 (A549 NSCLC) was 2.84 µM and the TGI (A549 NSCLC) was 16.5 µM. The GI50 (OVCAR-5 ovarian) was 4.58 µM, the TGI (OVCAR-5 ovarian) was 17.7 µM and the GI50 (ACHN renal) was 3.2 µM. The TGI (ACHN renal) was 12 µM, the GI50 (SK-MEL-5 melanoma) was 2.46 µM and the TGI (SK-MEL-5 melanoma) was 14.1 µM. The GI50 (786-0 renal) was 2.72 µM, the TGI (786-0 renal) was 11.9 µM and the GI50 (OVCAR-8 ovarian) was 10.6 µM. It also gave a TGI (OVCAR-8 ovarian) of 27.2 µM, a GI50 (OVCAR-4 ovarian) of 2.88 µM and a TGI (OVCAR-4 ovarian) of 10.6 µM. The GI50 (UACC-62 melanoma) was 4.75 µM, the TGI (UACC-62 melanoma) was 19.7 µM and the GI50 (HL-60(TB) leukemia) was 0.854 µM. For the same compound, the TGI (HL-60(TB) leukemia) was 11.1 µM, the GI50 (UO-31 renal) was 3.43 µM and the TGI (UO-31 renal) was 13.7 µM. For the same compound, the GI50 (U251 CNS) was 3.27 µM, the TGI (U251 CNS) was 15.7 µM and the GI50 (UACC-257 melanoma) was 5.18 µM. It also gave a TGI (UACC-257 melanoma) of 21.1 µM, a GI50 (CAKI-1 renal) of 0.84 µM and a TGI (CAKI-1 renal) of 10.3 µM. For the same compound, the GI50 (HS 578T breast) was 2.33 µM, the TGI (HS 578T breast) was 11.9 µM and the GI50 (MDA-MB-231 breast) was 4.77 µM. The TGI (MDA-MB-231 breast) was 18.8 µM, the GI50 (SF-295 CNS) was 2.27 µM and the TGI (SF-295 CNS) was 13.4 µM. It also gave a GI50 (SF-539 CNS) of 2.49 µM, a TGI (SF-539 CNS) of 9.95 µM and a GI50 (NCI-H522 lung) of 0.403 µM. For the same compound, the TGI (NCI-H522 lung) was 5.56 µM, the GI50 (MALME-3M melanoma) was 2.01 µM and the TGI (MALME-3M melanoma) was 15.2 µM. The GI50 (MDA-MB-468 breast) was 0.657 µM, the TGI (MDA-MB-468 breast) was 6.23 µM and the GI50 (SF-268 CNS) was 3.56 µM. The TGI (SF-268 CNS) was 20 µM, the GI50 (CCRF-CEM leukemia) was 2.09 µM and the TGI (CCRF-CEM leukemia) was > 100 µM. It also gave a GI50 (HCT-116 colon) of 1.1 µM, a TGI (HCT-116 colon) of 10.2 µM and a GI50 (SN12C renal) of 3.85 µM. It also gave a TGI (SN12C renal) of 15.1 µM, a GI50 (SR leukemia) of 0.394 µM and a TGI (SR leukemia) of 29.9 µM. The GI50 (OVCAR-3 ovarian) was 0.517 µM, the TGI (OVCAR-3 ovarian) was 5.32 µM and the GI50 (MOLT-4 leukemia) was 2.63 µM. The TGI (MOLT-4 leukemia) was 26 µM, the GI50 (HT29 colon) was 0.923 µM and the TGI (HT29 colon) was 10.1 µM. The GI50 (HOP-92 NSCLC) was 1.98 µM, the TGI (HOP-92 NSCLC) was 6.38 µM and the GI50 (NCI-H23 lung) was 5.33 µM. It also gave a TGI (NCI-H23 lung) of 21.1 µM, a GI50 (DU-145 prostate) of 4.63 µM and a TGI (DU-145 prostate) of 17.2 µM. The GI50 (TK-10 renal) was 8.56 µM, the TGI (TK-10 renal) was 22.8 µM and the GI50 (RPMI-8226 leukemia) was 5.73 µM. The TGI (RPMI-8226 leukemia) was > 100 µM, the GI50 (BT-549 breast) was 0.81 µM and the TGI (BT-549 breast) was 10.7 µM. The GI50 (EKVX NSCLC) was 8.02 µM, the TGI (EKVX NSCLC) was 22.2 µM and the GI50 (MCF7 breast) was 1.79 µM. For the same compound, the TGI (MCF7 breast) was 11.9 µM, the GI50 (PC-3 prostate) was 2.59 µM and the TGI (PC-3 prostate) was 22.6 µM. The GI50 (SNB-75 CNS) was 1.24 µM, the TGI (SNB-75 CNS) was 3.63 µM and the GI50 (HOP-62 NSCLC) was 2.69 µM. It also gave a TGI (HOP-62 NSCLC) of 15.7 µM, a GI50 (COLO 205 colon) of 3.14 µM and a TGI (COLO 205 colon) of 16.4 µM. The GI50 (K-562 leukemia) was 0.526 µM, the TGI (K-562 leukemia) was 31.1 µM and the GI50 (SK-OV-3 ovarian) was 2.56 µM. It also gave a TGI (SK-OV-3 ovarian) of 10.3 µM, a GI50 (SW-620 colon) of 3.1 µM and a TGI (SW-620 colon) of 21.8 µM. For the same compound, the GI50 (MDA-MB-435) was 0.28 µM, the TGI (MDA-MB-435) was 0.94 µM and the GI50 (T-47D breast) was 3.58 µM. It also gave a TGI (T-47D breast) of 19.7 µM, a GI50 (SNB-19 CNS) of 6.6 µM and a TGI (SNB-19 CNS) of 21.2 µM. The GI50 (SK-MEL-28 melanoma) was 6.07 µM, the TGI (SK-MEL-28 melanoma) was 21 µM and the GI50 (KM12 colon) was 0.977 µM. For the same compound, the TGI (KM12 colon) was 16.8 µM, the GI50 (SK-MEL-2 melanoma) was 1.45 µM and the TGI (SK-MEL-2 melanoma) was 12.2 µM. It also gave a GI50 (RXF 393 renal) of 1 µM, a TGI (RXF 393 renal) of 5.8 µM and a GI50 (NCI-H460 lung) of 2.1 µM. The TGI (NCI-H460 lung) was 14.3 µM.
